Assay results taken from patent publication US4061637A, “Certain 4-aryl-5-(4-phenylpiperazino)alkyl-4-thiazolin-2-ones” (priority 1974, dated 1977).
Counter-ions that a name gives are not always drawn. Like-named read-outs stand apart in the source and are kept apart here.

Columns and labels:
[1] = Inhibition of spontaneous motility in the mouse; type: in vivo; details: for ED50: po, 0.5 h, read-out: Spontaneous motility inhibition mouse ED50
Protocol: This is evaluated by an actophotometric method, which consists of placing the mice, 30 minutes after oral treatment with the drug or the carrier, in a cage provided with a photoelectric cell counter and counting the number of times the photoelectric cell is passed during a 10 minute stay.

[2] = Pinching the tail of the mouse (systemic analgesic activity); type: in vivo; details: po, 0.5 h; for inhibition in vivo at 200 mg/kg: 200 mg/kg os; for inhibition in vivo at 100 mg/kg: 100 mg/kg os
Protocol: To evaluate the analgesic activity, the method described by Bianchi and colleagues (Brit. J. Pharmacol., 9, 280, 1954) was followed which consists of applying an arterial pincer to the base of the tail in animals treated orally 30 minutes previously with the drug under examination, observing that the control animals react to the pain by squealing.

nor-adrenalin = test: Antagonism towards a lethal dose of nor-adrenalin in the rat (α-adrenolytic activity); type: in vivo; details: for ED50: po, 1 h, read-out: α-adrenolytic activity lethal NA rat ED50
Protocol: Antagonism towards a lethal dose of nor-adrenalin in the rat
The animals are treated with a dose of nor-adrenalin (0.5 mg/kg) which is 100% lethal in animals. The activity is calculated by the number of animals protected from death by prior administration of the drug under examination one hour before the agonist. Where possible the ED50 was calculated.

[3] = Antagonism towards electric shock convulsions in the mouse; type: in vivo; details: po, 0.5 h, read-out: Anti-convulsion activity, electric shock, mouse, % att.; for inhibition in vivo at 200 mg/kg: 200 mg/kg os; for inhibition in vivo at 100 mg/kg: 100 mg/kg os
Protocol: This is evaluated by observing the protection given by pretreatment with the drug (30 minutes) against tonic convulsions obtained by applying a 35 volt current to the eyeballs.

[4] = Ulcers by constriction (stress) in the rat; type: in vivo; details: 4 h; for responders at 10 mg/kg / inhibition in vivo at 10 mg/kg: 10 mg/kg ip; for responders at 10 mg/kg / responders at 30 mg/kg: read-out: Anti-ulcer activity, ulcers by stress in the rat, Protected rats %; for inhibition in vivo at 10 mg/kg / inhibition in vivo at 30 mg/kg: read-out: Anti-ulcer activity, ulcers by stress in the rat, Reduction in ulcers %
Protocol: The method described by Rossi and colleagues (Compt. Rend. Soc. Biol., 150, 2124, 1956) was followed in which the formation of gastric ulcers is induced by immobilising the animal, in a state of fast for 48 hours, in a net for a period of 4 hours.
The protection given by treatment with the drug under examination before the beginning of the constriction period is evaluated by counting both the ulcers and the number of subjects without ulcers.

[5] = Acute toxicity under LD50 mouse; details: in vivo, ip
[6] = Cataleptic activity in the mouse; type: in vivo; details: for ED50: po, read-out: Cataleptic activity mouse ED50
[7] = Carrageen oedema in the conscious rat (anti-inflammatory activity); type: in vivo; details: for ED30: 1 h, ip, one hour before carrageen, read-out: Anti-inflammatory activity carrageenin oedema rat ED30
Protocol: Anti-inflammatory activity was evaluated by the method of Winter and colleagues (Proc. Soc. Exp. Biol., 111, 544, 1962) by endoperitoneally injecting the product under examination one hour before inducing oedema by injecting 0.05 ml. of a 1% suspension of carrageen (intradermally into the plantar portion of a rear paw).
The difference between the volume of the paw determined plethysmographically one hour before and three hours after the carrageen gives a quantitative estimate of the activity of the product tested. Where possible, the ED30 was calculated.

[8] = mouse, os, 30 minutes after treatment
[9] = rat, os, one hour before nor-adrenalin 0.5 mg/kg

| Structure (SMILES) | responders at 10 mg/kg ([4]; rat) [%] | inhibition in vivo at 10 mg/kg ([4]; rat) [%] | LD50 [5] [mg/kg] | ED50 ([6]; mouse, os) [mg/kg] | ED50 [1, 8] [mg/kg] | inhibition in vivo at 200 mg/kg ([2]; mouse, 30 minutes) [%] | ED50 (nor-adrenalin; Rattus norvegicus) [mg/kg] | inhibition in vivo at 200 mg/kg ([3]; mouse, 35 volt) [%] | Anti-inflammatory activity carrageenin oedema rat, percentage activity (ED30 lacking) ([7]; 200 mg/kg ip) [%] | responders at 30 mg/kg ([4]; rat, 30 mg/kg ip) [%] | inhibition in vivo at 30 mg/kg ([4]; rat, 30 mg/kg ip) [%] | ED30 [7] [mg/kg] | further results |
| --- | --- | --- | --- | --- | --- | --- | --- | --- | --- | --- | --- | --- | --- |
| O=c1[nH]c(-c2ccc(F)cc2)c(CCN2CCC3(CC2)OCCCCO3)s1 [LR 648, 4-p-fluorophenyl-5-β-[7,12-dioxa-3-azaspiro[5,6]-dodec-3-yl]-ethyl-4-thiazolin-2-one hydrochloride] | 10 | 32 | 125 |  |  |  |  |  |  |  |  |  | Spontaneous motility inhibition mouse, percentage activity (ED50 lacking) ([1]; mouse, 26 mg/kg os): 20%; inhibition in vivo at 26 mg/kg ([2]; mouse, 26 mg/kg os, 30 minutes): 0%; α-adrenolytic activity lethal NA rat, percentage activity (ED50 lacking) (nor-adrenalin; rat, 7 mg/kg os): 0%; inhibition in vivo at 26 mg/kg ([3]; mouse, 26 mg/kg os, 35 volt): 20% |
| COc1ccc(-c2[nH]c(=O)sc2CCN2CCN(c3ccccc3)CC2)cc1 [LR 639, 4-p-methoxyphenyl-5-β-(N'-phenylpiperazino)ethyl-4-thiazolin-2-one] | 30 | 28 | > 1000 | 88 | 33 | 0 | 45 | 0 | 8.1 |  |  |  |  |
| Cn1c(-c2ccc(F)cc2)c(CCN2CCN(c3ccccc3)CC2)sc1=O [LR 652, 3-methyl-4-p-fluorophenyl-5-β-(N'-phenylpiperazino)-ethyl-4-thiazolin-2-one] |  |  | > 1000 | 52.4 | 23 | 0 | 13.3 | 40 |  | 50 | 68 | 163 |  |
| CN(CCc1ccccc1)CCc1sc(=O)[nH]c1-c1ccc(Cl)cc1.O=C(O)/C=C\C(=O)O [LR 628, 4-p-chlorophenyl-5-β-(N-methylphenylethylamino)ethyl-4-thiazolin-2-one maleate] |  |  | 400 |  | 100 |  |  |  |  | 0 | 0 | 35 | inhibition in vivo at 100 mg/kg ([2]; mouse, 30 minutes): 0%; ED50 (nor-adrenalin; [9]): 8 mg/kg; inhibition in vivo at 100 mg/kg ([3]; mouse, 35 volt): 0% |
| O=c1[nH]c(-c2ccc(Cl)cc2)c(CN2CCN(c3ccccc3)CC2)s1 [LR 660, 4-p-chlorophenyl-5-(N'-phenylpiperazino)methyl-4-thiazolin-2-one] | 50 | 50 | > 1000 |  | 100 |  |  | 20 |  |  |  |  |  |
| O=c1[nH]c(-c2ccc(Cl)cc2)c(CN2CCCCC2)s1 [LR 659, 4-p-chlorophenyl-5-piperidinomethyl-4-thiazolin-2-one] | 50 | 50 | > 1000 |  |  | 0 |  | 30 |  |  |  |  |  |
| O=c1[nH]c(-c2ccc(F)cc2)c(CCN2CCC(O)(c3ccc(Cl)cc3)CC2)s1 [LR 613, 4-p-fluorophenyl-5-β-[(4'-hydroxy-4'-p-chlorophenyl)-piperidino]-ethyl-4-thiazolin-2-one hydrochloride] |  |  | 300 |  |  |  |  |  |  |  |  |  | ED50 ([6]; Mus musculus): 32.4 mg/kg; ED50 ([1]; Mus musculus): 18 mg/kg; inhibition in vivo at 60 mg/kg ([2]; Mus musculus, read-out: Systemic analgesic activity, tail pinching in mouse, %): 10%; α-adrenolytic activity lethal NA rat, percentage activity (ED50 lacking) (nor-adrenalin; rat, 15 mg/kg os): 20%; inhibition in vivo at 60 mg/kg ([3]; Mus musculus): 10%; responders at 30 mg/kg ([4]; Rattus norvegicus, ip): 60%; inhibition in vivo at 30 mg/kg ([4]; Rattus norvegicus, ip): 80%; Anti-inflammatory activity carrageenin oedema rat, percentage activity (ED30 lacking) ([7]; 60 mg/kg ip): 15.2% |
| CN(CCc1ccccc1)CCc1sc(=O)[nH]c1-c1ccccc1.O=C(O)/C=C\C(=O)O [LR 630, 4-phenyl-5-β-(N-methylphenylethylamino)ethyl-4-thiazolin-2-one maleate] |  |  | 750 | 180 | 60 |  |  |  |  | 10 | 0 | 145 | inhibition in vivo at 180 mg/kg ([2]; mouse, 180 mg/kg os, 30 minutes): 0%; ED50 (nor-adrenalin; [9]): 16 mg/kg; inhibition in vivo at 180 mg/kg ([3]; mouse, 180 mg/kg os, 35 volt): 10% |
| O=c1[nH]c(-c2ccc(Cl)cc2)c(CCN2CCN(c3ccccc3)CC2)s1 [LR 638, 4-p-chlorophenyl-5-β-(N'-phenylpiperazino)ethyl-4-thiazolin-2-one] | 60 | 63 | > 1000 | 200 | 200 | 10 |  | 10 | 14 |  |  |  | α-adrenolytic activity lethal NA rat, percentage activity (ED50 lacking) (nor-adrenalin; rat, 50 mg/kg os): 0% |
| CC(=O)n1c(-c2ccc(F)cc2)c(CCN2CCN(c3ccccc3)CC2)sc1=O [LR 653, 3-acetyl-4-p-fluorophenyl-5-β-(N'-phenylpiperazino)-ethyl-4-thiazolin-2-one] |  |  | 420 | 80 | 11.6 |  | 12.8 |  |  |  |  |  | inhibition in vivo at 100 mg/kg ([2]; mouse, 30 minutes): 20%; inhibition in vivo at 100 mg/kg ([3]; mouse, 35 volt): 20%; Anti-inflammatory activity carrageenin oedema rat, percentage activity (ED30 lacking) ([7]; 100 mg/kg ip): 25.4% |
| O=c1[nH]c(-c2ccc(F)cc2)c(CCN2CCN(c3ccccc3)CC2)s1 [LR 599, 4-p-fluorophenyl-5-β-(N'-phenylpiperazino)ethyl-4-thiazolin-2-one] |  |  | > 1000 | 200 | 69.2 | 30 | 45 | 0 | 20 | 20 | 48 |  |  |
| CN(CCc1ccccc1)CCc1sc(=O)[nH]c1-c1ccc(F)cc1.O=C(O)/C=C\C(=O)O [LR 616, 4-p-fluorophenyl-5-β-(N-methylphenylethylamino)ethyl-4-thiazolin-2-one maleate] |  |  | 225 |  | 40 |  |  |  |  | 10 | 0 | 54 | Cataleptic activity mouse, percentage activity (ED50 lacking) ([6]; mouse, 40 mg/kg os): 0%; inhibition in vivo at 40 mg/kg ([2]; mouse, 40 mg/kg os, 30 minutes): 0%; ED50 (nor-adrenalin; [9]): 5.5 mg/kg; inhibition in vivo at 40 mg/kg ([3]; mouse, 40 mg/kg os, 35 volt): 0% |
| O=c1[nH]c(-c2ccccc2)c(CCN2CCN(c3ccccc3)CC2)s1 [LR 637, 4-phenyl-5-β-(N'-phenylpiperazino)ethyl-4-thiazolin-2-one] | 57 | 86 | 1000 | 200 | 200 | 30 | 18 | 20 | 11.6 |  |  |  |  |
